Test results reported in US10278974B2 (Pfizer Inc., priority 2010, dated 2019).

How the values were obtained:
Format in all cases: physicochemical
[1] = Physical stability on storage, followed by PXRD; details: two weeks of storage at 70° C. with 75% relative humidity
Description: A PXRD pattern for maleate polymorph Form B was measured at: 1) an initial time point and 2): two weeks after storage at 70° C. with 75% relative humidity (RH).
A PXRD pattern for S-camsylate polymorph Form A was measured at: 1) an initial time point and 2): two weeks after storage at 70° C. with 75% relative humidity (RH).

[2] = Susceptibility of salt forms to hydration; details: compared to other salt forms of Compound 1; solid dosage form suitability
[3] = Hygroscopicity by dynamic vapor sorption (DVS); details: 30° C., 0 to 90% RH in 15% RH intervals
Description: Solid (20-25 mg) was exposed to a controlled relative humidity (% RH) and temperature environment (30° C.), and the weight change was recorded over time. The humidity was stepped from 0 to 90% RH in 15% RH intervals.

| Compound | change of PXRD pattern after storage (physical stability) [1] | susceptibility to hydration [2] | hygroscopicity indicated by dynamic vapor sorption isotherm [3] |
| --- | --- | --- | --- |
| CC1(C)[C@@H]2CC[C@@]1(CS(=O)(=O)O)C(=O)C2.CNCc1ccc(-c2[nH]c3cc(F)cc4c3c2CCNC4=O)cc1 [S-camsylate polymorph Form A] | did not change significantly | not susceptible to hydration | non-hygroscopic |
| CNCc1ccc(-c2[nH]c3cc(F)cc4c3c2CCNC4=O)cc1.O=C(O)C=CC(=O)O [maleate polymorph Form B] | did not change significantly | not susceptible to hydration | non-hygroscopic |
